Assay results: US9657022B2, “7-OXO-1,6-diazabicyclo[3.2.1]octane derivatives and their use as antibacterial agents” (WOCKHARDT LIMITED, priority 2014, dated 2017)
pIC50: −log10 of the molar value. ≈ marks a conversion by molar mass, not a printed value. Where two headings read alike, the source gives them in different places.

Experiments:
[1] = test system: E. coli NCTC 13353 (CTX-M15, OXA-1); experiment: Antibacterial activity (MIC), agar dilution per CLSI; assay type: cell-based; settings: Escherichia coli
Method: (§1) The biological activity of representative compounds according to the invention against various bacterial strains was investigated. In a typical study, overnight grown bacterial cultures were diluted appropriately and inoculated on the agar media containing doubling dilutions of the test compounds. Observations for growth or no growth was performed after 16-20 hours of incubation at 35±2° C. in the ambient air. The overall procedure was performed as per Clinical and Laboratory Standards Institute (CLSI) recommendations, (Clinical and Laboratory Standards Institute (CLSI), Performance Standards for Antimicrobial Susceptibility Testing, 20th Informational Supplement, M07-A9, Volume 32, No. 2, 2012). Molten Mueller Hinton Agar (BD, USA) containing serial dilutions of each antibacterial agent were poured on to the plates and allowed to solidify. Appropriate suspensions from the freshly grown cultures were prepared in normal saline so that about 10^4 CFU/spot of the organism was delivered on to the drug containing agar plates using automated multipoint inoculator (Mast, UK). The plates were incubated in Biochemical oxygen demand (BOD) incubator at 37° C. for 18 hours and then examined for growth.
(§2) The strains selected for study included E. coli NCTC 13353 producing CTX-M15 and OXA-1 beta-lactamase enzymes; K. pneumoniae H521 producing KPC, SHV, TEM beta-lactamase enzymes; and K. pneumoniae S48 producing NDM, SHV, TEM beta-lactamase enzymes. The activities are expressed as Minimum Inhibitory Concentrations (MICs) (mcg/ml).
(§3) The activities are expressed as Minimum Inhibitory Concentrations (MICs) (mcg/ml).

[2] = test system: K. pneumoniae H521 (KPC, SHV, TEM); experiment: as above; assay type: cell-based; settings: Klebsiella pneumoniae
Method: as §1, §2, §3

[3] = test system: K. pneumoniae S48 (NDM, SHV, TEM); experiment: as above; assay type: cell-based; settings: Klebsiella pneumoniae
Method: as §1, §2

[4] = target: T1, Class A beta-lactamase SHV 18 (K. pneumoniae ATCC 700603) (Klebsiella pneumoniae, UniProt P0AD64, E235K/G234A/I4F/R39S); experiment: Beta-lactamase enzyme inhibition (Nitrocefin, crude enzyme); assay type: biochemical; settings: Beta-lactamase enzyme inhibition IC50, Class A, K. pneumoniae ATCC 700603 (SHV 18)
T1 sequence (P0AD64 1-286 I4F/R39S/G234A/E235K): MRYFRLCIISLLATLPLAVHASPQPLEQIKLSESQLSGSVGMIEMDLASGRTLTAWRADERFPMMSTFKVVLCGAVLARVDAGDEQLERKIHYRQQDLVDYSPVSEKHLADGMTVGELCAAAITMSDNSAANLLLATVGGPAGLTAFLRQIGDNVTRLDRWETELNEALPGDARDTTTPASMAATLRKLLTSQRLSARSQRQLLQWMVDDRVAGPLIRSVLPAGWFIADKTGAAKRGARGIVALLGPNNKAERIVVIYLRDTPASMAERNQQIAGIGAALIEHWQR
Method: (§4) Absorbance was measured at 485 nm by UV-spectrophotometer. The IC50 was calculated by plotting absorbance against concentration through Sigmoidal dose response curve using Graph Pad software.
(§5) The enzyme inhibition was expressed as IC50.

[5] = test system: Class C beta-lactamase CMY/DHA (E. coli M50); experiment: as above; assay type: biochemical
Method: as §4, §5

[6] = target: T2, Class D beta-lactamase OXA 23 (A. baumannii NCTC 13301) (Acinetobacter baumannii, UniProt Q9L4P2); experiment: as above; assay type: biochemical; settings: A. baumannii NCTC 13301 (OXA 23)
T2 construct: preincubated mixture of crude enzyme and the compounds; endogenous in cells; host or cells: A. baumannii NCTC 13301
Method: as §4, §5

[7] = target: Class D beta-lactamase OXA 26 (A. baumannii NCTC 13303) (Acinetobacter baumannii, UniProt Q9F0V2); experiment: as above; assay type: biochemical; settings: read-out: Beta-lactamase enzyme inhibition IC50, A. baumannii NCTC 13303 (OXA 26)
Method: as §4

E. coli NCTC 13353 = experiment: Zone of inhibition, agar well, with and without ceftazidime; assay type: cell-based; settings: for Diameter of Zone of Inhibition, Compound + Ceftazidime (10 μg/ml): E. coli NCTC 13353; for zone of inhibition at 0.25 µg/disc / zone of inhibition at 0.5 µg/disc / zone of inhibition at 1 µg/disc: Escherichia coli, NCTC13353, read-out: Diameter of Zone of Inhibition, Compound
Method: (§6) In a typical experiment, two sets of plates containing growth media (Molten Mueller Hilton Agar) and bacterial strains were prepared. One set of plates was taken as control (without ceftazidime) and other set contained ceftazidime. The media was allowed to solidify and wells were punched later, into which varying concentrations of compounds according to the invention were poured. A two-fold serial dilution range of each of the compounds according to invention was prepared and 50 μl of each of the dilution was added into the punched well. The plates were then incubated at 37° C. for 18 hours in BOD incubator and diameters of zone of inhibition were measured after the completion of the incubation.
(§7) The Table 6 provides the antibacterial activity of the combination comprising compounds according to invention and ceftazidime. The compounds according to invention were tested at 0.12, 0.25, 0.5 and 1 μg/well.

E. coli M50 = experiment: as above; assay type: cell-based; settings: for Diameter of Zone of Inhibition, Compound + Ceftazidime (10 μg/ml): E. coli M50; for zone of inhibition at 0.25 µg/disc / zone of inhibition at 0.5 µg/disc / zone of inhibition at 1 µg/disc: Escherichia coli, M50, read-out: Diameter of Zone of Inhibition, Compound
Method: as §6, §7

[8] = NCTC13353, E. coli NCTC 13353 (CTX-M15, OXA-1), read-out: MIC
[9] = K. pneumoniae H521 (KPC, SHV, TEM), read-out: MIC
[10] = Class D, read-out: Beta-lactamase enzyme inhibition IC50
[11] = Beta-lactamase enzyme inhibition IC50, Class D
[12] = compound 0.25 μg/well + Ceftazidime 10 μg/ml
[13] = compound 0.5 μg/well + Ceftazidime 10 μg/ml
[14] = compound 1 μg/well + Ceftazidime 10 μg/ml
[15] = compound […] + Ceftazidime 10 μg/ml

T2 sequence (Q9L4P2 18-273): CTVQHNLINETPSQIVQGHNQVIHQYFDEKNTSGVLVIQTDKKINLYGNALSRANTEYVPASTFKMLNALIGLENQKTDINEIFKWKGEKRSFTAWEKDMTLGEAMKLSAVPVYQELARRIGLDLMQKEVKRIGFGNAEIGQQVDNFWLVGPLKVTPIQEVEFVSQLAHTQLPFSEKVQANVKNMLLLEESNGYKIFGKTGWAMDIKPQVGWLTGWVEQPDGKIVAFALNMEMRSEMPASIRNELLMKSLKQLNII
Sequence of Class D beta-lactamase OXA 26 (A. baumannii NCTC 13303) (Q9F0V2 entry or part of it): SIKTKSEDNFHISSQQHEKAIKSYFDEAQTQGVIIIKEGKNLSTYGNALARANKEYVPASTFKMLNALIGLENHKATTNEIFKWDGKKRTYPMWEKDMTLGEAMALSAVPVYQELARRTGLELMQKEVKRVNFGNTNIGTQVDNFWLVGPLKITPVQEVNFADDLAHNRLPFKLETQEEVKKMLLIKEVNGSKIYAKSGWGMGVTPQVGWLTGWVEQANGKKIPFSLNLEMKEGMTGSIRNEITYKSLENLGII

With `O=C(CC1CNCCN1)NNC(=O)[C@@H]1CC[C@@H]2CN1C(=O)N2OS(=O)(=O)O` (mixture of isomers) [Example 7, (2S,5R)-sulfuric acid mono-{2-[N′-(2-(RS)-piperazin-2-yl-acetyl)-hydrazinocarbonyl]-7-oxo-1,6-diaza-bicyclo[3.2.1]oct-6-yl}ester] the MIC [1, 8] was 2 µg/mL, the MIC [2, 9] was 4 µg/mL and the MIC [3] was 2 µg/mL. It also gave a pIC50 [4] of 7.17, a pIC50 [5] of 7.15 and a pIC50 [6, 10] of 5.55.
`O=C(O)[C@H]1/C(=C/CO)O[C@@H]2CC(=O)N21` [Clavulanic acid, clavulanic acid, reference compound] was tested, and the pIC50 [7] was less than 5.00 and the pIC50 [6, 11] was less than 5.00.
`C[C@@H](O)[C@H]1C(=O)N2C(C(=O)O)=C(SCCN=CN)C[C@H]12` [Imipenem, imipenem, reference compound] showed an MIC [1, 8] of 0.25 µg/mL (≈ 0.835 µM).
In the case of `O=C(C[C@@H]1CCCNC1)NNC(=O)[C@@H]1CC[C@@H]2CN1C(=O)N2OS(=O)(=O)O` [Example 5, (2S,5R)-sulfuric acid mono-{2-[N′-(2-(S)-piperidin-3-yl-acetyl)-hydrazinocarbonyl]-7-oxo-1,6-diaza-bicyclo[3.2.1]oct-6-yl}ester], the MIC ([1]; NCTC13353, 18 h) was 0.5 µg/mL (≈ 1.23 µM), the MIC ([2]; 18 h) was 4 µg/mL (≈ 9.87 µM) and the MIC ([3]; 18 h) was 1 µg/mL (≈ 2.47 µM). The pIC50 [4] was 6.80 and the pIC50 [6, 10] was 5.76.
With `CC(C)(O/N=C(\C(=O)N[C@@H]1C(=O)N2C(C(=O)[O-])=C(C[n+]3ccccc3)CS[C@H]12)c1csc(N)n1)C(=O)O` [Ceftazidime, ceftazidime, reference compound] the MIC [1, 8] was 32 µg/mL (≈ 58.5 µM), the MIC [2, 9] was greater than 32 µg/mL and the MIC ([3]; K. pneomoniae S48 (NDM, SHV, TEM), read-out: MIC) was greater than 32 µg/mL.
`O=C(C[C@@H]1CCCCN1)NNC(=O)[C@@H]1CC[C@@H]2CN1C(=O)N2OS(=O)(=O)O` [Example 3, (2S,5R)-sulfuric acid mono-{2-[N′-(2-(S)-piperidin-2-yl-acetyl)-hydrazinocarbonyl]-7-oxo-1,6-diaza-bicyclo[3.2.1]oct-6-yl}ester] was tested, and the MIC ([1]; NCTC13353) was 0.25 µg/mL (≈ 0.617 µM), the MIC [2] was 0.5 µg/mL (≈ 1.23 µM) and the “Diameter of Zone of Inhibition, Compound + Ceftazidime (10 μg/ml)” value (from here on “Diameter of Zone of Inhibition”) (E. coli NCTC 13353; [12]) was 22 mm. For the same molecule, the “Diameter of Zone of Inhibition” value (E. coli NCTC 13353; [13]) was 27 mm, the “Diameter of Zone of Inhibition” value (E. coli NCTC 13353; [14]) was 30 mm and the “Diameter of Zone of Inhibition” value (E. coli NCTC 13353; [15]) was 20 mm. It also gave a zone of inhibition at 0.25 µg/disc (E. coli NCTC 13353) of 14 mm, a zone of inhibition at 0.5 µg/disc (E. coli NCTC 13353) of 15 mm and a zone of inhibition at 1 µg/disc (E. coli NCTC 13353) of 17 mm. The “Diameter of Zone of Inhibition” value (E. coli M50; [12]) was 17.5 mm, the “Diameter of Zone of Inhibition” value (E. coli M50; [13]) was 20 mm and the “Diameter of Zone of Inhibition” value (E. coli M50; [14]) was 22.5 mm. The “Diameter of Zone of Inhibition” value (E. coli M50; [15]) was 14.5 mm, the zone of inhibition at 0.25 µg/disc (E. coli M50) was 13 mm and the zone of inhibition at 0.5 µg/disc (E. coli M50) was 16 mm. It also gave a zone of inhibition at 1 µg/disc (E. coli M50) of 17 mm, an MIC [3] of 0.5 µg/mL (≈ 1.23 µM) and a pIC50 [4] of 7.13. It also gave a pIC50 [5] of 7.28 and a pIC50 [6, 10] of 5.68.
With `O=C(CC1CCNCC1)NNC(=O)[C@@H]1CC[C@@H]2CN1C(=O)N2OS(=O)(=O)O` [Example 6, (2S,5R)-sulfuric acid mono-{2-[N′-(2-piperidin-4-yl-acetyl)-hydrazinocarbonyl]-7-oxo-1,6-diaza-bicyclo[3.2.1]oct-6-yl}ester] the MIC ([1]; NCTC13353) was 0.5 µg/mL (≈ 1.23 µM), the MIC [2] was 2 µg/mL (≈ 4.93 µM) and the MIC [3] was 1 µg/mL (≈ 2.47 µM). The pIC50 [4] was 7.22, the pIC50 [5] was 7.43 and the pIC50 [6, 10] was 5.79.
In the case of `O=C(CC1CNC1)NNC(=O)[C@@H]1CC[C@@H]2CN1C(=O)N2OS(=O)(=O)O` [Example 2, (2S,5R)-sulfuric acid mono-{2-[N′-(2-azetidin-3-yl-acetyl)-hydrazinocarbonyl]-7-oxo-1,6-diaza-bicyclo[3.2.1]oct-6-yl}ester], the MIC ([1]; NCTC13353) was 1 µg/mL (≈ 2.65 µM), the MIC [2] was 4 µg/mL (≈ 10.6 µM) and the “Diameter of Zone of Inhibition” value (E. coli NCTC 13353; [12]) was 24 mm. For the same molecule, the “Diameter of Zone of Inhibition” value (E. coli NCTC 13353; [13]) was 26 mm, the “Diameter of Zone of Inhibition” value (E. coli NCTC 13353; [14]) was 30 mm and the “Diameter of Zone of Inhibition” value (E. coli NCTC 13353; [15]) was 21 mm. For the same molecule, the zone of inhibition at 0.25 µg/disc (E. coli NCTC 13353) was 10 mm, the zone of inhibition at 0.5 µg/disc (E. coli NCTC 13353) was 13 mm and the zone of inhibition at 1 µg/disc (E. coli NCTC 13353) was 15 mm. The “Diameter of Zone of Inhibition” value (E. coli M50; [12]) was 19 mm, the “Diameter of Zone of Inhibition” value (E. coli M50; [13]) was 22 mm and the “Diameter of Zone of Inhibition” value (E. coli M50; [14]) was 23.5 mm. For the same molecule, the “Diameter of Zone of Inhibition” value (E. coli M50; [15]) was 15 mm, the zone of inhibition at 0.25 µg/disc (E. coli M50) was 9 mm and the zone of inhibition at 0.5 µg/disc (E. coli M50) was 12 mm. For the same molecule, the zone of inhibition at 1 µg/disc (E. coli M50) was 15 mm, the MIC [3] was 2 µg/mL (≈ 5.3 µM) and the pIC50 [4] was 7.01. For the same molecule, the pIC50 [5] was 6.99 and the pIC50 [6, 11] was 5.21.
`O=C(C[C@H]1CCCCN1)NNC(=O)[C@@H]1CC[C@@H]2CN1C(=O)N2OS(=O)(=O)O` [Example 4, (2S,5R)-sulfuric acid mono-{2-[N′-(2-(R)-piperidin-2-yl-acetyl)-hydrazinocarbonyl]-7-oxo-1,6-diaza-bicyclo[3.2.1]oct-6-yl}ester] showed an MIC ([1]; NCTC13353) of 2 µg/mL (≈ 4.93 µM), an MIC [2] of 4 µg/mL (≈ 9.87 µM) and an MIC [3] of 2 µg/mL (≈ 4.93 µM). The pIC50 [4] was 6.77, the pIC50 [5] was 7.25 and the pIC50 [6, 10] was 5.53.
